Literature values, collected in patent US9622975B2, “Pharmaceutical composition” (Novartis AG, priority 2005, dated 2017).

Columns and labels:
[1] = especially in the alkaline conditions of the intestine
[2] = in vivo

Row | water solubility [1] | absorbed by the gastro-intestinal tract [2] | SMILES
1 | very water soluble |  | O=C(O)CCCCCCCNC(=O)c1ccccc1O [SNAC, N-(8-[2-hydroxybenzoyl]amino) caprylic acid]
2 |  | greater than 90% | O=C(O)CCCCCCCCCNC(=O)c1ccccc1O [SNAD, N-(10-[2-hydroxybenzoyl]amino) decanoic acid]
3 | very water soluble |  | O=C(O)CCCCCCCNC(=O)c1cc(Cl)ccc1O [Example 5-CNAC, N-(5-chlorosalicyloyl)-8-aminocaprylic acid]
